Laboratory results: PubChem BioAssay (NCI)
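Assay format: 96-well plates, 48-hour exposure. TGI marks complete inhibition of growth.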

Experiments:
Experiment in all cases: DTP human tumour cell line panel, 48 h
HCT-116 colon = tested on: HCT-116 colon
HCC-2998 colon = tested on: HCC-2998 colon
HOP-62 NSCLC = tested on: HOP-62 NSCLC
786-0 renal = tested on: 786-0 renal
NCI-H460 lung = tested on: NCI-H460 lung
SK-MEL-28 melanoma = tested on: SK-MEL-28 melanoma
UACC-62 melanoma = tested on: UACC-62 melanoma
IGROV1 ovarian = tested on: IGROV1 ovarian
SF-268 CNS = tested on: SF-268 CNS
EKVX NSCLC = tested on: EKVX NSCLC
MDA-N = tested on: MDA-N
K-562 leukemia = tested on: K-562 leukemia
SF-539 CNS = tested on: SF-539 CNS
RPMI-8226 leukemia = tested on: RPMI-8226 leukemia
COLO 205 colon = tested on: COLO 205 colon
LOX IMVI melanoma = tested on: LOX IMVI melanoma
MOLT-4 leukemia = tested on: MOLT-4 leukemia
HS 578T breast = tested on: HS 578T breast
M14 melanoma = tested on: M14 melanoma
HOP-92 NSCLC = tested on: HOP-92 NSCLC
SNB-19 CNS = tested on: SNB-19 CNS
PC-3 prostate = tested on: PC-3 prostate
SN12C renal = tested on: SN12C renal
HT29 colon = tested on: HT29 colon
OVCAR-3 ovarian = tested on: OVCAR-3 ovarian
SK-MEL-5 melanoma = tested on: SK-MEL-5 melanoma
CAKI-1 renal = tested on: CAKI-1 renal
SF-295 CNS = tested on: SF-295 CNS
OVCAR-8 ovarian = tested on: OVCAR-8 ovarian
MDA-MB-435 = tested on: MDA-MB-435
UO-31 renal = tested on: UO-31 renal
SR leukemia = tested on: SR leukemia
A549 NSCLC = tested on: A549 NSCLC
SK-MEL-2 melanoma = tested on: SK-MEL-2 melanoma
SW-620 colon = tested on: SW-620 colon
ACHN renal = tested on: ACHN renal
KM12 colon = tested on: KM12 colon
NCI/ADR-RES ovarian = tested on: NCI/ADR-RES ovarian
HCT-15 colon = tested on: HCT-15 colon
NCI-H23 lung = tested on: NCI-H23 lung
OVCAR-5 ovarian = tested on: OVCAR-5 ovarian
MCF7 breast = tested on: MCF7 breast
T-47D breast = tested on: T-47D breast
UACC-257 melanoma = tested on: UACC-257 melanoma
SNB-75 CNS = tested on: SNB-75 CNS
U251 CNS = tested on: U251 CNS
CCRF-CEM leukemia = tested on: CCRF-CEM leukemia
A498 renal = tested on: A498 renal
HL-60(TB) leukemia = tested on: HL-60(TB) leukemia
SK-OV-3 ovarian = tested on: SK-OV-3 ovarian
TK-10 renal = tested on: TK-10 renal
DU-145 prostate = tested on: DU-145 prostate
OVCAR-4 ovarian = tested on: OVCAR-4 ovarian
MALME-3M melanoma = tested on: MALME-3M melanoma
MDA-MB-231 breast = tested on: MDA-MB-231 breast

**Q.** Which TGI (HCT-116 colon) does the source give for `Cc1ccc(-c2ccc(Nc3c4ccccc4nc4ccccc34)cc2)cn1` here?
**A.** The TGI was 10.3 µM.

**Q.** And the TGI (HCC-2998 colon)?
**A.** Its TGI is 44.7 µM.

**Q.** What about the TGI (HOP-62 NSCLC) of the same compound?
**A.** Its TGI is 3.77 µM.

**Q.** And the TGI (786-0 renal)?
**A.** Its TGI is 3.42 µM.

**Q.** And the TGI (NCI-H460 lung)?
**A.** The TGI was 5.3 µM.

**Q.** What about the TGI (SK-MEL-28 melanoma) of the same compound?
**A.** Its TGI is 9.18 µM.

**Q.** What about the TGI (UACC-62 melanoma) of the same compound?
**A.** The TGI was 11.5 µM.

**Q.** And the TGI (IGROV1 ovarian)?
**A.** Its TGI is 18.4 µM.

**Q.** What about the TGI (SF-268 CNS) of the same compound?
**A.** The TGI was > 100 µM.

**Q.** What about the TGI (EKVX NSCLC) of the same compound?
**A.** Its TGI is > 100 µM.

**Q.** What about the TGI (MDA-N) of the same compound?
**A.** Its TGI is 19.6 µM.

**Q.** What about the TGI (K-562 leukemia) of the same compound?
**A.** Its TGI is 10.7 µM.

**Q.** And the TGI (SF-539 CNS)?
**A.** Its TGI is 21.1 µM.

**Q.** What about the TGI (RPMI-8226 leukemia) of the same compound?
**A.** Its TGI is 4.54 µM.

**Q.** What about the TGI (COLO 205 colon) of the same compound?
**A.** The TGI was 12.2 µM.

**Q.** What about the TGI (LOX IMVI melanoma) of the same compound?
**A.** Its TGI is 6.54 µM.

**Q.** And the TGI (MOLT-4 leukemia)?
**A.** Its TGI is 3.59 µM.

**Q.** What about the TGI (HS 578T breast) of the same compound?
**A.** The TGI was 58.3 µM.

**Q.** What about the TGI (M14 melanoma) of the same compound?
**A.** The TGI was 11.2 µM.

**Q.** What about the TGI (HOP-92 NSCLC) of the same compound?
**A.** The TGI was 3.28 µM.

**Q.** What about the TGI (SNB-19 CNS) of the same compound?
**A.** The TGI was > 100 µM.

**Q.** What about the TGI (PC-3 prostate) of the same compound?
**A.** Its TGI is 28.8 µM.

**Q.** And the TGI (SN12C renal)?
**A.** Its TGI is 15.3 µM.

**Q.** What about the TGI (HT29 colon) of the same compound?
**A.** Its TGI is 4.75 µM.

**Q.** What about the TGI (OVCAR-3 ovarian) of the same compound?
**A.** The TGI was 6.41 µM.

**Q.** And the TGI (SK-MEL-5 melanoma)?
**A.** Its TGI is 16.5 µM.

**Q.** What about the TGI (CAKI-1 renal) of the same compound?
**A.** Its TGI is 9.02 µM.

**Q.** What about the TGI (SF-295 CNS) of the same compound?
**A.** Its TGI is 11.9 µM.

**Q.** And the TGI (OVCAR-8 ovarian)?
**A.** Its TGI is > 100 µM.

**Q.** And the TGI (MDA-MB-435)?
**A.** Its TGI is 16 µM.

**Q.** What about the TGI (UO-31 renal) of the same compound?
**A.** The TGI was 13.2 µM.

**Q.** What about the TGI (SR leukemia) of the same compound?
**A.** The TGI was 6.56 µM.

**Q.** What about the TGI (A549 NSCLC) of the same compound?
**A.** Its TGI is 10.3 µM.

**Q.** What about the TGI (SK-MEL-2 melanoma) of the same compound?
**A.** Its TGI is 3.63 µM.

**Q.** And the TGI (SW-620 colon)?
**A.** Its TGI is 14.9 µM.

**Q.** And the TGI (ACHN renal)?
**A.** Its TGI is 6.76 µM.

**Q.** What about the TGI (KM12 colon) of the same compound?
**A.** The TGI was 19.1 µM.

**Q.** What about the TGI (NCI/ADR-RES ovarian) of the same compound?
**A.** Its TGI is 65.6 µM.

**Q.** What about the TGI (HCT-15 colon) of the same compound?
**A.** The TGI was 17.2 µM.

**Q.** What about the TGI (NCI-H23 lung) of the same compound?
**A.** The TGI was 88.7 µM.

**Q.** What about the TGI (OVCAR-5 ovarian) of the same compound?
**A.** Its TGI is 69.5 µM.

**Q.** What about the TGI (MCF7 breast) of the same compound?
**A.** Its TGI is 8.91 µM.

**Q.** And the TGI (T-47D breast)?
**A.** Its TGI is 5.44 µM.

**Q.** What about the TGI (UACC-257 melanoma) of the same compound?
**A.** The TGI was 28.5 µM.

**Q.** `C/C(Cl)=N\OC(=O)Nc1ccccc1C(F)(F)F` was tested. Which TGI (SNB-75 CNS) did it give?
**A.** Its TGI is > 100 µM.

**Q.** And the TGI (HCT-116 colon)?
**A.** The TGI was > 100 µM.

**Q.** What about the TGI (HCC-2998 colon) of the same compound?
**A.** Its TGI is > 100 µM.

**Q.** And the TGI (U251 CNS)?
**A.** Its TGI is > 100 µM.

**Q.** What about the TGI (786-0 renal) of the same compound?
**A.** Its TGI is 38.6 µM.

**Q.** And the TGI (NCI-H460 lung)?
**A.** Its TGI is > 100 µM.

**Q.** And the TGI (CCRF-CEM leukemia)?
**A.** The TGI was 53 µM.

**Q.** What about the TGI (SK-MEL-28 melanoma) of the same compound?
**A.** The TGI was 42.3 µM.

**Q.** And the TGI (IGROV1 ovarian)?
**A.** The TGI was > 100 µM.

**Q.** And the TGI (A498 renal)?
**A.** The TGI was > 100 µM.

**Q.** And the TGI (SF-268 CNS)?
**A.** The TGI was > 100 µM.

**Q.** What about the TGI (EKVX NSCLC) of the same compound?
**A.** Its TGI is 57.6 µM.

**Q.** What about the TGI (MDA-N) of the same compound?
**A.** The TGI was 31.7 µM.

**Q.** And the TGI (K-562 leukemia)?
**A.** Its TGI is 40.3 µM.

**Q.** And the TGI (SF-539 CNS)?
**A.** The TGI was > 100 µM.

**Q.** What about the TGI (RPMI-8226 leukemia) of the same compound?
**A.** Its TGI is 45.2 µM.

**Q.** What about the TGI (COLO 205 colon) of the same compound?
**A.** The TGI was 43.6 µM.

**Q.** What about the TGI (LOX IMVI melanoma) of the same compound?
**A.** The TGI was 29.2 µM.

**Q.** What about the TGI (HL-60(TB) leukemia) of the same compound?
**A.** Its TGI is 15.5 µM.

**Q.** What about the TGI (MOLT-4 leukemia) of the same compound?
**A.** The TGI was 47.9 µM.

**Q.** What about the TGI (HS 578T breast) of the same compound?
**A.** The TGI was > 100 µM.

**Q.** What about the TGI (SK-OV-3 ovarian) of the same compound?
**A.** Its TGI is > 100 µM.

**Q.** And the TGI (HOP-92 NSCLC)?
**A.** Its TGI is 19 µM.

**Q.** What about the TGI (SNB-19 CNS) of the same compound?
**A.** The TGI was > 100 µM.

**Q.** What about the TGI (PC-3 prostate) of the same compound?
**A.** Its TGI is > 100 µM.

**Q.** What about the TGI (SN12C renal) of the same compound?
**A.** Its TGI is > 100 µM.

**Q.** And the TGI (HT29 colon)?
**A.** The TGI was 34.7 µM.

**Q.** And the TGI (OVCAR-3 ovarian)?
**A.** The TGI was 29.2 µM.

**Q.** And the TGI (SK-MEL-5 melanoma)?
**A.** Its TGI is > 100 µM.

**Q.** What about the TGI (CAKI-1 renal) of the same compound?
**A.** Its TGI is > 100 µM.

**Q.** And the TGI (SF-295 CNS)?
**A.** Its TGI is > 100 µM.

**Q.** And the TGI (OVCAR-8 ovarian)?
**A.** The TGI was > 100 µM.

**Q.** And the TGI (UO-31 renal)?
**A.** The TGI was > 100 µM.

**Q.** What about the TGI (SR leukemia) of the same compound?
**A.** Its TGI is 44.9 µM.

**Q.** And the TGI (A549 NSCLC)?
**A.** The TGI was > 100 µM.

**Q.** And the TGI (SK-MEL-2 melanoma)?
**A.** The TGI was > 100 µM.

**Q.** What about the TGI (TK-10 renal) of the same compound?
**A.** Its TGI is 28.8 µM.

**Q.** What about the TGI (SW-620 colon) of the same compound?
**A.** The TGI was 36.1 µM.

**Q.** And the TGI (DU-145 prostate)?
**A.** The TGI was > 100 µM.

**Q.** What about the TGI (ACHN renal) of the same compound?
**A.** Its TGI is 35.2 µM.

**Q.** And the TGI (KM12 colon)?
**A.** The TGI was > 100 µM.

**Q.** And the TGI (OVCAR-4 ovarian)?
**A.** The TGI was 26.9 µM.

**Q.** What about the TGI (NCI/ADR-RES ovarian) of the same compound?
**A.** The TGI was 47.5 µM.

**Q.** And the TGI (MALME-3M melanoma)?
**A.** The TGI was 48.1 µM.

**Q.** And the TGI (HCT-15 colon)?
**A.** Its TGI is > 100 µM.

**Q.** What about the TGI (NCI-H23 lung) of the same compound?
**A.** Its TGI is > 100 µM.

**Q.** And the TGI (OVCAR-5 ovarian)?
**A.** The TGI was > 100 µM.

**Q.** And the TGI (MCF7 breast)?
**A.** Its TGI is 61.5 µM.

**Q.** And the TGI (T-47D breast)?
**A.** The TGI was > 100 µM.

**Q.** What about the TGI (MDA-MB-231 breast) of the same compound?
**A.** Its TGI is 46.9 µM.

**Q.** What about the TGI (UACC-257 melanoma) of the same compound?
**A.** Its TGI is > 100 µM.
